Assay results: the supplement of paper PMC11061612

Tests used:
[1] = compound: C1CN(CCC1(C(=O)N[C@@H](CCO)C2=CC=C(C=C2)Cl)N)C3=NC=NC4=C3C=CN4 [AZD5363]; settings: max 10 µM
Outline: (§1)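 Cancer cell lines were seeded in 1536-well plates in 7.5 μl DMEM/F12 or RPMI with 10% FBS, held 24 hours at 37°C and 5% CO2, then dosed for 72 hours (final DMSO typically 0.2%). Viability was read by CellTiter-Glo 2.0 luminescence and scaled between blank-well and DMSO-well means. The single-agent IC50 comes from dose responses fitted to a two-parameter logistic curve with a non-linear mixed effects model.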

[2] = compound: COc1cccc(OCCCN)c1-c1cc(Nc2cnc(C#N)cn2)n[nH]1 [Prexasertib]; settings: max 1 µM
Outline: as §1

[3] = compound: CN(C)CCCOc1ccc(-c2ccc3ncc4c(c3c2)n(C2CCOCC2)c(=O)n4C)cn1 [AZD0156]; settings: max 3 µM
Outline: as §1

[4] = compound: CN(CC[C@H](CSC1=CC=CC=C1)NC2=C(C=C(C=C2)S(=O)(=O)NC(=O)C3=CC=C(C=C3)N4CCC(CC4)[C@H](C5=CC=CC=C5C6=CC=C(C=C6)Cl)O)S(=O)(=O)C(F)(F)F)CCO [AZD4320]; settings: max 1 µM
Outline: as §1

[5] = compound: Nc1ccn([C@@H]2O[C@H](CO)[C@@H](O)C2(F)F)c(=O)n1 [Gemcitabine]; settings: max 0.3 µM
Outline: as §1

[6] = compound: CC1(C)CCC(CN2CCN(c3ccc(C(=O)NS(=O)(=O)c4ccc(NCC5CCOCC5)c([N+](=O)[O-])c4)c(Oc4cnc5[nH]ccc5c4)c3)CC2)=C(c2ccc(Cl)cc2)C1 [Venetoclax]; settings: max 1 µM
Outline: as §1

[7] = compound: Cn1cnc2c(F)c(Nc3ccc(Br)cc3Cl)c(C(=O)NOCCO)cc21 [Selumetinib]; settings: max 10 µM
Outline: as §1

[8] = compound: COc1cc([C@@H]2c3cc4c(cc3[C@@H](O[C@@H]3O[C@@H]5CO[C@@H](C)O[C@H]5[C@H](O)[C@H]3O)[C@H]3COC(=O)[C@H]23)OCO4)cc(OC)c1O [Etoposide]; settings: max 10 µM
Outline: as §1

[9] = compound: O=C(Nc1ccc2[nH]nc(-c3ccncc3)c2c1)[C@@H]1CCN(CC(=O)N2CCN(c3ccc(-c4ncccn4)cc3)CC2)C1; settings: max 5 µM
Outline: as §1

[10] = compound: CC(C)n1c(=O)n(C)c2cnc3cc(F)c(-c4ccc(OCCCN5CCCCC5)nc4)cc3c21 [AZD1390]; settings: max 0.3 µM
Outline: as §1

[11] = compound: CC(=O)Nc1cccc(-n2c(=O)n(C3CC3)c(=O)c3c(Nc4ccc(I)cc4F)n(C)c(=O)c(C)c32)c1 [Trametinib]; settings: max 1 µM
Outline: as §1

[12] = compound: CC(=O)O[C@H]1C(=O)[C@@]2(C)[C@H]([C@H](OC(=O)c3ccccc3)[C@]3(O)C[C@H](OC(=O)[C@H](O)[C@@H](NC(=O)c4ccccc4)c4ccccc4)C(C)=C1C3(C)C)[C@]1(OC(C)=O)CO[C@@H]1C[C@@H]2O [Paclitaxel]; settings: max 3 µM
Outline: as §1

[13] = compound: C1CC(C1)(C(=O)[O-])C(=O)[O-].N.N.[Pt+2] [Carboplatin]; settings: max 10 µM
Outline: as §1

[14] = compound: C[C@@H](Nc1cc(F)cc(F)c1)c1cc(C(=O)N(C)C)cc2c(=O)cc(N3CCOCC3)oc12 [AZD8186]; settings: max 10 µM
Outline: as §1

[15] = compound: NC1(c2ccc(-c3nc4ccn5c(=O)[nH]nc5c4cc3-c3ccccc3)cc2)CCC1 [MK-2206]; settings: max 10 µM
Outline: as §1

[16] = compound: C[C@@H](c1ccc2nccn2c1)n1nnc2ncc(-c3cnn(C)c3)nc21 [Savolitinib]; settings: max 1 µM
Outline: as §1

[17] = compound: CCc1c2c(nc3ccc(O)cc13)-c1cc3c(c(=O)n1C2)COC(=O)[C@]3(O)CC [SN-38]; settings: max 0.3 µM
Outline: as §1

[18] = compound: Cc1nc(-c2cn3c(n2)-c2ccc(-c4cnn(C(C)(C)C(N)=O)c4)cc2OCC3)n(C(C)C)n1 [Taselisib]; settings: max 10 µM
Outline: as §1

[19] = compound: COc1cc(Nc2ncc3c(n2)-c2ccc(Cl)cc2C(c2c(F)cccc2OC)=NC3)ccc1C(=O)O [Alisertib]; settings: max 10 µM
Outline: as §1

[20] = compound: C=CCn1c(=O)c2cnc(Nc3ccc(N4CCN(C)CC4)cc3)nc2n1-c1cccc(C(C)(C)O)n1 [AZD1775]; settings: max 3 µM
Outline: as §1

[21] = compound: C[C@@H](Oc1cc(-c2cnn(C3CCNCC3)c2)cnc1N)c1c(Cl)ccc(F)c1Cl [Crizotinib]; settings: max 10 µM
Outline: as §1

[22] = compound: CC1=CN2[C@@H](C1)C=NC3=CC(=C(C=C3C2=O)OC)OCCCCCOC4=C(C=C5C(=C4)N=C[C@@H]6CC(=CN6C5=O)C)OC [SG3199]; settings: max 0.001 µM
Outline: as §1

[23] = compound: COc1nnc2ccc(N3CCC(c4ccc(OCCN5CCN(C)C(=O)[C@H]5C)cc4)CC3)nn12 [AZD5153]; settings: max 1 µM
Outline: as §1

[24] = compound: O=c1[nH]cc(F)c(=O)[nH]1 [5-Fluorouracil]; settings: max 20 µM
Outline: as §1

[25] = compound: CC1=C(C(=CC=C1)Cl)NC(=O)C2=CN=C(S2)NC3=CC(=NC(=N3)C)N4CCN(CC4)CCO [Dasatinib]; settings: max 2 µM
Outline: as §1

[26] = compound: O=C(c1cc(Cc2n[nH]c(=O)c3ccccc23)ccc1F)N1CCN(C(=O)C2CC2)CC1 [Olaparib]; settings: max 10 µM
Outline: as §1

[27] = compound: CC(=O)c1c(C)c2cnc(Nc3ccc(N4CCNCC4)cn3)nc2n(C2CCCC2)c1=O [Palbociclib]; settings: max 10 µM
Outline: as §1

[28] = compound: Cc1cc2ncnn2cc1Nc1ncc2c(n1)n(C1CCOCC1)c(=O)n2C [AZD7648]; settings: max 10 µM
Outline: as §1

[29] = compound: CCN(CCO)CCCOc1ccc2c(Nc3cc(CC(=O)Nc4cccc(F)c4)[nH]n3)ncnc2c1 [AZD2811]; settings: max 1 µM
Outline: as §1

[30] = compound: N#Cc1cnc(Nc2cc(NC[C@H]3CNCCO3)c(C(F)(F)F)cn2)cn1 [SRA737]; settings: max 10 µM
Outline: as §1

[31] = compound: COc1cccc2c1C(=O)c1c(O)c3c(c(O)c1C2=O)C[C@@](O)(C(=O)CO)C[C@@H]3O[C@H]1C[C@H](N)[C@H](O)[C@H](C)O1 [Doxorubicin]; settings: max 1 µM
Outline: as §1

[32] = compound: COc1cc2ncnc(Nc3ccc(F)c(Cl)c3)c2cc1OCCCN1CCOCC1 [Gefitinib]; settings: max 10 µM
Outline: as §1

[33] = compound: C[C@@H]1COCCN1C2=NC(=NC(=C2)C3(CC3)[S@](=N)(=O)C)C4=C5C=CNC5=NC=C4 [AZD6738]; settings: max 10 µM
Outline: as §1

[34] = compound: CS(=O)(=O)CCNCc1ccc(-c2ccc3ncnc(Nc4ccc(OCc5cccc(F)c5)c(Cl)c4)c3c2)o1 [Lapatinib]; settings: max 10 µM
Outline: as §1

[35] = compound: Cc1c2c(nn1C)CSCc1cc(n(C)n1)CSc1cc(c3ccccc3c1)OCCCc1c(C(=O)O)n(C)c3c-2c(Cl)ccc13 [AZD5991]; settings: max 1 µM
Outline: as §1

Row | Cell Line | IC50, cell viability 72 h [1] [µM] | IC50, cell viability 72 h [2] [nM] | IC50, cell viability 72 h [3] [nM] | IC50, cell viability 72 h [4] [nM] | IC50, cell viability 72 h [5] [nM] | IC50, cell viability 72 h [6] [nM] | IC50, cell viability 72 h [7] [µM] | IC50, cell viability 72 h [8] [µM] | IC50, cell viability 72 h [9] [µM] | IC50, cell viability 72 h [10] [nM] | IC50, cell viability 72 h [11] [nM] | IC50, cell viability 72 h [12] [nM] | IC50, cell viability 72 h [13] [µM] | IC50, cell viability 72 h [14] [µM] | IC50, cell viability 72 h [15] [µM] | IC50, cell viability 72 h [16] [nM] | IC50, cell viability 72 h [17] [nM] | IC50, cell viability 72 h [18] [µM] | IC50, cell viability 72 h [19] [µM] | IC50, cell viability 72 h [20] [nM] | IC50, cell viability 72 h [21] [µM] | IC50, cell viability 72 h [22] [nM] | IC50, cell viability 72 h [23] [nM] | IC50, cell viability 72 h [24] [µM] | IC50, cell viability 72 h [25] [nM] | IC50, cell viability 72 h [26] [µM] | IC50, cell viability 72 h [27] [µM] | IC50, cell viability 72 h [28] [µM] | IC50, cell viability 72 h [29] [nM] | IC50, cell viability 72 h [30] [µM] | IC50, cell viability 72 h [31] [nM] | IC50, cell viability 72 h [32] [µM] | IC50, cell viability 72 h [33] [µM] | IC50, cell viability 72 h [34] [µM] | IC50, cell viability 72 h [35] [nM]
1 | ACHN (Kidney Carcinoma) | > 10 | 10.8 | > 3000 | > 1000 | 20.1 | > 1000 | > 10 | 5.5 | > 5 | > 300 | > 1000 | 461 | > 10 | > 10 | > 10 | > 1000 | 12.7 | 6.33 | 9.51 | 116 | > 10 | > 1 | 623 | > 20 | 179 | > 10 | 4.94 | > 10 | > 1000 | 1.58 | 264 | 3.43 | 0.97 | 8.52 | > 1000
2 | AMO-1 (Plasma Cell Myeloma) | 6.03 | 8.82 | > 3000 | > 1000 | 15.3 | > 1000 | > 10 | 1.68 | > 5 | > 300 | > 1000 | < 3 | > 10 | > 10 | 1.15 | > 1000 | 18.4 | 3.41 | 0.192 | 633 | 3 | > 1 | 36.6 | > 20 | > 2000 | > 10 | > 10 | > 10 | > 1000 | 2.01 | 169 | > 10 | 3.18 | 6.71 | 18.6
3 | BT-549 (Breast Carcinoma) | > 10 | 592 | > 3000 | > 1000 | > 300 | > 1000 | > 10 | 9.22 | > 5 | > 300 | > 1000 | 25.3 | > 10 | > 10 | > 10 | > 1000 | 171 | > 10 | > 10 | 2520 | > 10 | > 1 | 531 | > 20 | > 2000 | > 10 | > 10 | > 10 | > 1000 | > 10 | > 1000 | > 10 | > 10 | > 10 | > 1000
4 | Ca9-22 (Head and Neck Carcinoma) | > 10 | 31.3 | > 3000 | > 1000 | 73.2 | > 1000 | > 10 | > 10 | 4.67 | > 300 | 657 | 7.45 | > 10 | > 10 | > 10 | > 1000 | 10.5 | 1.37 | 7.14 | 714 | 9.4 | > 1 | 350 | > 20 | 229 | > 10 | > 10 | > 10 | > 1000 | > 10 | 931 | 3.84 | 2.37 | 2.14 | > 1000
5 | Caov-4 (Ovarian Carcinoma) | > 10 | 12.6 | > 3000 | > 1000 | 78.5 | > 1000 | > 10 | 6.04 | 3.33 | > 300 | 108 | 545 | > 10 | > 10 | 9.35 | > 1000 | 11.6 | > 10 | > 10 | 816 | > 10 | > 1 | 719 | > 20 | > 2000 | > 10 | > 10 | > 10 | > 1000 | 4.02 | 253 | > 10 | 3.19 | > 10 | 993
